Measured values from patent publication US20260276636A1, “METHOD FOR SPECIFIC AND RAPID QUANTIFICATION OF THE TOTAL VIABLE BACTERIAL COUNT IN RAW MILK” (National Institute of Metrology, priority 2023, published 2026).

Columns and labels:
L. lactis [1] = experiment: Minimum inhibitory concentration (MIC) assay; assay type: cell-based, Lactococcus lactis; conditions: 96-well plate, 37° C., 48 h; ATCC 19257
Experimental: (§1) • 1. Culture of bacterial strains. After the four bacterial strains were activated on a nutrient agar plate, a single colony was picked, inoculated to TSB medium (10 g/L peptone, 3 g/L beef extract powder, and 5 g/L sodium chloride), incubated at 37° C. for 6 h to the mid-logarithmic stage, and then centrifuged at 8000 rpm for 5 min to collect the bacterial cells. The collected bacterial cells were suspended in fresh TSB medium at a bacterial suspension concentration of approximately 10^7 cells/mL. • 2. Antibiotics. […] Antibiotics were purchased from Shanghai Yuanye Biotechnology Co., Ltd. An appropriate amount of antibiotics was weighed and dissolved in DSMO to prepare a stock solution of a cell division inhibitor, which was stored in the dark at −20° C. • 3. Minimum inhibitory concentration (MIC) assay. The above four bacterial suspensions were plated in a 96-well plate, to which antibiotics were added at final concentrations of […], and then incubated at 37° C. for 48 h. Bacterial growth was analyzed using a microplate reader, and the smallest concentration of antibiotics that could inhibit the growth of bacteria was defined as the minimum inhibitory concentration. • 4. Evaluation of inhibitory effect on bacterial division. […] After centrifugation at 8000 rpm, the bacterial cells were collected and resuspended in the PBS buffer, and the changes in the number of bacteria in the sample were analyzed using the forward scatter signals on the flow cytometer. • 5. Detection of bacterial viability. […] SYTO9 labeled all bacteria in green and PI labeled dead bacteria in red. The above labeling system was left at room temperature for 30 min in the dark, washed and centrifuged with PBS twice, and the percentages of viable and dead bacteria were analyzed using a flow cytometer. Measurement and analysis were performed using an Apogee A50 flow cytometer. At an excitation wavelength of 488 nm, a flow rate of 3-25 μL/min and a detection time of 10-100 s, the total number of bacteria was analyzed in the green fluorescence channel, and the number of dead bacteria was analyzed in the red fluorescence channel.

B. subtilis = experiment: Minimum inhibitory concentration (MIC) assay; assay type: cell-based, Bacillus subtilis; conditions: 96-well plate, 37° C., 48 h; ATCC 6633
Experimental: as §1

E. coli [2] = experiment: Minimum inhibitory concentration (MIC) assay; assay type: cell-based, Escherichia coli; conditions: 96-well plate, 37° C., 48 h; ATCC 10798
Experimental: as §1

S. aureus = experiment: Minimum inhibitory concentration (MIC) assay; assay type: cell-based, Staphylococcus aureus; conditions: 96-well plate, 37° C., 48 h; ATCC 29213
Experimental: as §1

[3] = system: four species of bacteria (B. subtilis, E. coli, S. aureus, L. lactis); experiment: Evaluation of inhibitory effect on bacterial division (flow cytometry); assay type: cell-based; conditions: 1 μg/mL, 2 h of treatment, compared to blank control; FIG. 7
Experimental: (§2) • 1. Culture of bacterial strains. After the four bacterial strains were activated on a nutrient agar plate, a single colony was picked, inoculated to TSB medium (10 g/L peptone, 3 g/L beef extract powder, and 5 g/L sodium chloride), incubated at 37° C. for 6 h to the mid-logarithmic stage, and then centrifuged at 8000 rpm for 5 min to collect the bacterial cells. The collected bacterial cells were suspended in fresh TSB medium at a bacterial suspension concentration of approximately 10^7 cells/mL. • 2. Antibiotics. […] Bacterial growth was analyzed using a microplate reader, and the smallest concentration of antibiotics that could inhibit the growth of bacteria was defined as the minimum inhibitory concentration. • 4. […] After centrifugation at 8000 rpm, the bacterial cells were collected and resuspended in the PBS buffer, and the changes in the number of bacteria in the sample were analyzed using the forward scatter signals on the flow cytometer. • 5. […] The above labeling system was left at room temperature for 30 min in the dark, washed and centrifuged with PBS twice, and the percentages of viable and dead bacteria were analyzed using a flow cytometer. […]

Staphylococcus aureus [4] = conditions: 2 h
Experimental: as §2

E. coli [5] = experiment: Fluorescent labeling in presence of bacterial cell division inhibitor (flow cytometry); assay type: cell-based, Escherichia coli; conditions: 500 μM, 2 h, with bacterial cell division inhibitor, FIG. 8
Description: (§3) • 1. Culture of bacterial strains. […] Fluorescent labeling with FADA. […] Fluorescent labeling with FADAA (Amino FADA).

[6] = system: B. subtilis, E. coli, S. aureus, and L. lactis; experiment: Fluorescence microscopy observation of FADA-labeled bacteria; assay type: cell-based; conditions: 300 μM, 37° C., 6 h; FIG. 1
Experimental: (§4) • 1. Staphylococcus aureus (Deposit number: ATCC 29213), Escherichia coli (Deposit number: ATCC 10798), Lactococcus lactis (Deposit number: ATCC 19257), and Bacillus subtilis (Deposit number: ATCC 6633). The four bacterial strains are the dominant bacteria or the important indicator and pathogenic bacteria in raw milk. • 2. […] Labeling method. […] Fluorescence microscopy observation method. […] 10 μL of bacterial suspension was added onto a slide to prepare an observation sample, which was observed using a 100× oil lens and FITC fluorescence channel. Brightfield images and fluorescence field images were recorded separately. • 5. Flow cytometry. […] The sample not incubated with FADA was used as the negative control.

[7] = system: four species of bacteria (B. subtilis, E. coli, S. aureus, L. lactis); experiment: Labeling efficiency by flow cytometry; assay type: cell-based
Experimental: as §4, with “Optimization of labeling conditions.” for “The sample not incubated with FADA was used as the negative control.”

L. lactis [8] = experiment: Fluorescent labeling in presence of bacterial cell division inhibitor (flow cytometry); assay type: cell-based, Lactococcus lactis; conditions: 500 μM, 2 h, with bacterial cell division inhibitor, FIG. 8
Description: as §3

Staphylococcus aureus [9] = experiment: Specific labeling in mixed samples, fluorescence microscopy; assay type: cell-based; conditions: 500 μM, 37° C., 6 h, mixed with yeast or cow leukocytes; FIG. 6
Experimental: (§5) • 1. Activation of bacterial strain. After Staphylococcus aureus was activated on a nutrient agar plate, a single colony was picked, inoculated to TSB medium (10 g/L peptone, 3 g/L beef extract powder, and 5 g/L sodium chloride), incubated at 37° C. for 6 h to the mid-logarithmic stage, and then centrifuged at 8000 rpm for 5 min to collect the bacterial cells. The collected bacterial cells were suspended in fresh TSB medium at a bacterial suspension concentration of approximately 10^7 cells/mL. • 2.

Saccharomyces cerevisiae = experiment: as above; assay type: cell-based; conditions: 500 μM, 37° C., 6 h, mixed with S. aureus; FIG. 6
Experimental: as §5

[10] = system: Cow-derived fresh Leukocytes; experiment: as above; assay type: cell-based; conditions: 500 μM, 37° C., 6 h, mixed with S. aureus; FIG. 6
Experimental: as §5

Molecule | Resistance to quinolone antibiotics (MIC), L. lactis (L. lactis [1]) [µg/mL] | Resistance to quinolone antibiotics (MIC), B. subtilis (B. subtilis) [µg/mL] | Resistance to quinolone antibiotics (MIC), E. coli (E. coli [2]) [µg/mL] | Resistance to quinolone antibiotics (MIC), S. aureus (S. aureus) [µg/mL] | Inhibition of cell division of the four species of bacteria [3] | bacterial viability after antibiotic treatment (Staphylococcus aureus [4]) [%] | labeling effect (labeling efficiency) (E. coli [5]) [%] | Fluorescent labeling of bacterial cells under fluorescence microscope [6] | labeling efficiency ([7]; 300 μM, 37° C., 6 h, FIG. 2) [%] | labeling efficiency ([7]; 500 μM, 4 h, FIG. 3) | labeling effect (labeling efficiency) (L. lactis [8]) [%] | Fluorescent labeling of S. aureus in mixed samples (Staphylococcus aureus [9]) | Fluorescent labeling of yeast in mixed sample (Saccharomyces cerevisiae) | Fluorescent labeling of somatic cells (cow leukocytes) in mixed sample [10]
O=C(O)c1cn(C2CC2)c2cc(N3CCNCC3)c(F)cc2c1=O [Ciprofloxacin, ciprofloxacin] | 1 | 1 | 0.5 | 1 | efficient inhibition of cell division | – | – | – | – | – | – | – | – | –
C[C@H]1COc2c(N3CCN(C)CC3)c(F)cc3c(=O)c(C(=O)O)cn1c23 [Levofloxacin, levofloxacin] | 0.5 | 2 | <0.25 | <0.25 | – | – | – | – | – | – | – | – | – | –
COc1c(N2C[C@@H]3CCCN[C@@H]3C2)c(F)cc2c(=O)c(C(=O)O)cn(C3CC3)c12 [Moxifloxacin, moxifloxacin] | 2 | 8 | 1 | 4 | – | 88.1 | – | – | – | – | – | – | – | –
CCn1cc(C(=O)O)c(=O)c2ccc(C)nc21 [Nalidixic acid, nalidixic acid] | >256 | 128 | 4 | 64 | – | – | – | – | – | – | – | – | – | –
Carboxyfluorescein-labeled amino-D-alanine [FADA] | – | – | – | – | – | – | 81.6 | all cells in the field of view were found fluorescently labeled | > 98.5 | more than 98.5% | 57.1 | fluorescently labeled | not labeled | not labeled
